Data: PMC12676312, “Evaluation of Antiviral Activity of N‑Phenyl-2-Phenoxyacetamides Derived from Carvacrol against Mayaro Virus: In Vitro Analyses and In Silico Insights” (ACS Omega, 2025)

Columns and labels:
Mayaro virus (MAYV) [1] = assay type: cell-based, Mayaro virus (ATCC VR 66, strain TR 4675); conditions: Vero cells infected with MAYV (MOI 1) pre-treated 1 h with compound at its CC50-based concentration or 500 μM; 48 h; MTT; infected control 0%, uninfected 100%
Method: Vero cells (ATCC CCL-81) were used in all in vitro assays. Cells were cultured in DMEM medium supplemented with 2% fetal bovine serum (FBS), penicillin, and streptomycin, and incubated at a constant temperature of 37 °C under a controlled atmosphere of 5% CO2. Mayaro virus (ATCC VR 66, strain TR 4675) was initially propagated in C6/36 cells cultured in L-15 medium supplemented with 2% FBS, incubated at 28 °C. For viral titer determination, Vero cells (10^5 cells/well) were seeded in 24-well plates and cultured for approximately 24 h to achieve 80% confluence. Subsequently, the culture medium was replaced with 10-fold serial dilutions of the viral aliquot. The plate was maintained under constant agitation for 1 h to facilitate viral adsorption. The medium was then replaced with a semisolid medium (incomplete DMEM and 1% carboxymethylcellulose at a 2:1 ratio). Plates were incubated for 48 h under the aforementioned conditions, and cytopathic effects were monitored. After this period, cells were fixed with 10% formaldehyde and stained with 5% crystal violet solution for plaque counting. The mean number of plaques was used to determine the number of plaque-forming units (PFU), and the viral titer was expressed as PFU/mL.
To evaluate the antiviral potential of the molecules under study, an MTT (3-(4,5-dimethylthiazol-2-yl)-2,5-diphenyltetrazolium bromide) reduction assay was employed. Vero cells were seeded in 96-well plates (10^4 cells/well) and cultured until reaching approximately 80% confluence. […] For compounds with undetermined CC50 values, a concentration of 500 μM (the highest concentration tested in the previous study) was used. After incubation, the viral suspension was removed, DMEM medium was added, and cells were incubated for 48 h at 37 °C under a 5% CO2 atmosphere. Cell viability was determined by absorbance reading at 540 nm after solubilization of formazan crystals with DMSO, with the positive control (Vero cells infected with MAYV) defined as 0% cell viability and the negative control (uninfected Vero cells) defined as 100% cell viability. The compound providing the greatest cellular protection was selected for subsequent assays.

Vero cells = system: Vero cells; parameters: method as in previous study of our group; conditions: ref previous study of our group; cited from earlier work
Mayaro virus (MAYV) [2] = test: Virucidal assay (plaque reduction); assay type: cell-based, Mayaro virus (ATCC VR 66, strain TR 4675); conditions: Vero cells
Method: To determine the action of the molecule on viral particles, Vero cells cultured in 24-well plates (10^5 cells/well) at 80% confluence were infected with MAYV (100 PFU/well) previously incubated for 1 h with different concentrations of the compound at 37 °C (100 μL/well). Plates were maintained under agitation for 1 h, and afterward, the viral suspension was replaced with 1 mL of semisolid medium (DMEM + 1% carboxymethylcellulose). Plates were incubated for 48 h at 37 °C and 5% CO2 and subsequently fixed with 10% formaldehyde followed by staining with 5% crystal violet solution for plaque counting. DMEM was used as the negative control, and 100 PFU of untreated MAYV was used as the positive control.

Mayaro virus (MAYV) [3] = test: Pretreatment assay (plaque reduction); assay type: cell-based, Mayaro virus (ATCC VR 66, strain TR 4675); conditions: Vero cells pretreated 3 h with different concentrations, then infected
Method: To determine whether the compound exerts a protective effect on cells prior to viral infection, Vero cells cultured in 24-well plates (10^5 cells/well) were treated for 3 h at 37 °C with 100 μL of the compound at different concentrations, with periodic agitation. Subsequently, the medium was replaced with 100 μL of a solution containing MAYV (100 PFU), and the plates were incubated under constant agitation for 1 h. The viral suspension was then replaced with a semisolid medium (DMEM + 1% carboxymethylcellulose), and the plates were incubated for 48 h at 37 °C under a 5% CO2 atmosphere. Cells were fixed with 10% formaldehyde and stained with 5% crystal violet solution for plaque counting. DMEM was used as the negative control, and 100 PFU of MAYV was used as the positive control (untreated).

Mayaro virus (MAYV) [4] = test: Adsorption inhibition assay (plaque reduction); assay type: cell-based, Mayaro virus (ATCC VR 66, strain TR 4675); conditions: 4 °C for 2 h, Vero cells, read-out: Decrease in the number of lysis plaques (adsorption inhibition)
Method: To assess whether the compound interferes with the viral adsorption step, 24-well plates (10^5 cells/well) were cooled at 4 °C for 30 min. The culture medium was removed, and cells were washed with cold PBS, followed by the addition of 100 μL of a solution containing MAYV (100 PFU) and different concentrations of the compound. Cells were incubated at 4 °C for 2 h and subsequently washed with cold citrate buffer (0.1 M citric acid and 0.1 M sodium citrate) and PBS. Semisolid medium (DMEM + 1% carboxymethylcellulose) was then added, and plates were incubated at 37 °C for 48 h. Cells were fixed and stained for plaque counting as previously described. DMEM was used as the negative control, and 100 PFU of MAYV served as the positive control (untreated).

Mayaro virus (MAYV) [5] = test: Internalization inhibition assay (plaque reduction); assay type: cell-based, Mayaro virus (ATCC VR 66, strain TR 4675); conditions: concentrations between 500 μM and 62.5 μM; Vero cells
Method: To evaluate whether the compound affects the internalization step, 24-well plates (10^5 cells/well) were cooled at 4 °C for 30 min. The culture medium was removed, and cells were incubated with MAYV (100 PFU/well) at 4 °C for 2 h. Cells were washed with cold PBS, and 1 mL of DMEM was added followed by incubation for 5 min at 37 °C. Subsequently, different concentrations of the compound were added and incubated for 1 h at 37 °C. Cells were then washed with cold PBS and citrate buffer. Finally, semisolid medium (DMEM + 1% carboxymethylcellulose) was added, and plates were incubated at 37 °C for 48 h. Cells were fixed and stained for plaque counting. DMEM was used as the negative control, and 100 PFU of MAYV was used as the positive control (untreated).

Mayaro virus (MAYV) [6] = test: Post-treatment assay (plaque reduction); assay type: cell-based, Mayaro virus (ATCC VR 66, strain TR 4675); conditions: Vero cells treated after MAYV infection, any tested concentration
Method: To determine whether the compound acts after viral infection, Vero cells cultured in 24-well plates (10^5 cells/well) were initially infected with 100 μL of MAYV (100 PFU) and incubated under constant agitation for 1 h. The viral suspension was removed and replaced with 100 μL of the compound at different concentrations, followed by incubation for 3 h at 37 °C with periodic agitation. Subsequently, the medium was replaced with semisolid medium (DMEM + 1% carboxymethylcellulose). After 48 h of incubation at 37 °C and 5% CO2, the cells were fixed with 10% formaldehyde and stained with 5% crystal violet for plaque counting. For the negative control, DMEM was used, and for the positive control, 100 PFU of MAYV (untreated).

MAYV = system: MAYV; parameters: method as in Langedries et al.; conditions: Vero cells; ref Langedries et al.; cited from earlier work

| Structure (SMILES) | Antiviral screening (cell viability %) (Mayaro virus (MAYV) [1]) [%] | CC50 (Vero cells) [µM] | further results |
| --- | --- | --- | --- |
| Cc1ccc(C(C)C)cc1OCC(=O)Nc1ccccc1Cl [Compound 1] | 62.5 | 200 | – |
| Cc1ccc(C(C)C)cc1OCC(=O)Nc1ccc(Cl)cc1 [Compound 3] | 0 | 449 | – |
| Cc1ccc(C(C)C)cc1OCC(=O)Nc1ccccc1Br [Compound 4] | 0 | 372 | – |
| Cc1ccc(C(C)C)cc1OCC(=O)Nc1cccc(Br)c1 [Compound 5] | 50.0 | > 500 | – |
| Cc1ccc(C(C)C)cc1OCC(=O)Nc1ccc(Br)cc1 [Compound 6] | 0 | 182 | – |
| Cc1ccc(C(C)C)cc1OCC(=O)Nc1ccccc1F [Compound 7] | 22.83 | > 500 | – |
| Cc1ccc(C(C)C)cc1OCC(=O)Nc1ccc(F)cc1 [Compound 9] | – | > 500 | Reduction in the number of lysis plaques (virucidal activity) (Mayaro virus (MAYV) [2]; 500 μM, MAYV pre-incubated 1 h with compound): approximately 40%; Virucidal activity (number of lysis plaques) (Mayaro virus (MAYV) [2]; concentrations ranging from 500 μM to 31.25 μM): significant reduction in the number of lysis plaques; Number of lysis plaques, pretreatment of cells (Mayaro virus (MAYV) [3]): No reduction in the number of lysis plaques; inhibition at 500 µM (Mayaro virus (MAYV) [4]): ~58%; Reduction in the number of lysis plaques (internalization inhibition) (Mayaro virus (MAYV) [5]): about 50%; Viral activity, post-treatment (Mayaro virus (MAYV) [6]): no reduction in viral activity |
| Cc1ccc(C(C)C)cc1OCC(=O)Nc1ccccc1 [Compound 10] | 0 | > 500 | – |
| NC(=O)c1ncn([C@@H]2O[C@H](CO)[C@@H](O)[C@H]2O)n1 [ribavirin] | – | – | Antiviral activity against MAYV (MAYV): no antiviral activity |
